Assay results reported in article PMC9815544, “Discovery of potent and noncovalent KRAS^G12D inhibitors: Structure-based virtual screening and biological evaluation” (Frontiers in Pharmacology, 2022).
Like-named read-outs stand apart in the source and are kept apart here.

How the values were obtained:
KRAS^G12D [1] = target: T1, KRAS^G12D (Homo sapiens, UniProt P01116, G12D); details: known inhibitor, Figure 1, cited from earlier work
T1 construct: purchased Abcam

Panc 04.03 cells = experiment: MTT cell proliferation assay; type: cell-based; details: Homo sapiens, 72 h treatment
Method: According to the previously reported method ([Yang et al., 2019]), the human pancreatic cancer cell line (Panc 04.03) was seeded at the density of 2.4 × 10^4 on 96-well plates. After incubation at 37°C with 5% CO2 for 24 h, the cells were incubated with different concentrations of inhibitors under the same conditions. After 72 h, MTT (0.5 mg/ml, 100 μl) was added after the supernatant was discarded. Then keep the 96-well plate at 37°C for 4 h. After that, abandon the medium and inject 200 μl of dimethyl sulfoxide (DMSO) into each well. The spectrophotometric absorbance of the sample at 570 nm was measured using a Synergy 4 Microplate Reader (BioTek Instruments Inc., United States). All of the compounds were tested three times in each of the cells.

KRAS^G12D [2] = target: T1, KRAS^G12D; experiment: Microscale thermophoresis (MST) binding assay; details: room temperature
Method: MST is an effective method to evaluate biomolecular interactions and has been used to study the interactions between binding partners of different molecular sizes ([Wienken et al., 2010]; [Seidel et al., 2013]). According to the previously reported method to measure the interaction between small molecule inhibitors and KRAS^G12D protein, the MST assay was performed using Monolith NT.115 instrument (NanoTemp Technologies, GmbH, Munich, Germany) ([Wienken et al., 2010]). The red fluorescent dye was used for KRAS^G12D fluorescent labeling. Small molecule inhibitors were diluted 1:1 and titrated. The binding buffer (50 mM Tris, 230 mM NaCl) was added to the dilution curve of the small molecule inhibitors and the labeled protein. The final sample was centrifuged at 13,000 rpm for 10 min, and then filled into the capillary tube for MST analysis with 20% LED power and 50% MST power at room temperature. The equilibrium dissociation constant (K d) was calculated using Nano Temper Analysis software.

[3] = test system: Panc 04.03 xenograft tumors; experiment: In vivo anticancer activity, Panc 04.03 xenograft; set-up: species or system BALB/c nude mice; details: 3 and 10 mg/kg intraperitoneal every 4 days, five times, 20 days, vs vehicle
Method: Based on previously reported protocols for investigating inhibition in vivo ([Zhou et al., 2022]), we injected Panc 04.03 cells (200 μl, 1 × 10^7 cells) in the subdermal space on the right flank of 6-week-old BALB/c nude mice (Changzhou Cavens Laboratory Animal Co., Ltd, China). All experimental protocols were approved by the Animal Ethics Committee of China Pharmaceutical University (Ethic approval number: 2022–11–001). Once tumors grew to 80–100 mm^3, mice were randomly divided into three groups (5 mice per group) and intraperitoneally administered with vehicle, hit compound 3 (3 mg/kg) and hit compound 3 (10 mg/kg) every 4 days for a total of five times. Tumor volume and body weight were measured every 4 days. Tumor volume was calculated using the formula (c × c × d)/2 (c, the smallest diameter; d, the largest diameter).

T1 sequence (P01116 1-188 isoform P01116-2 G12D): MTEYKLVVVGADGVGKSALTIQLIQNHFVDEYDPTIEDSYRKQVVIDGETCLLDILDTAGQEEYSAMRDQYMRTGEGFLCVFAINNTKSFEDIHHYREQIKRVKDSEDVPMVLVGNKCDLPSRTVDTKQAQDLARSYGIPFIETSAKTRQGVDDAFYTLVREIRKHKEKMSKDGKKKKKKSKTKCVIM

## Cn1cnc(Cn2ccc3ccc(CNCc4[nH]c5ccccc5c4[C@H]4NC(=O)c5ccc(O)cc54)cc32)c1 [BI-2852]
KRAS^G12D [1]; ref Kessler et al., 2019
  IC50: 6700 nM

## C#Cc1c(F)ccc2cc(O)cc(-c3ncc4c(N5CC6CCC(C5)N6)nc(OCC(C)NC(F)(F)F)nc4c3F)c12 (stereo not shown) [Hit compound 1]
Panc 04.03 cells
  IC50: 212 nM
KRAS^G12D [2]
  Kd: 0.98 ± 0.09 nM

## C#Cc1c(F)ccc2cc(O)cc(-c3ncc4c(N5CC6CCC(C5)N6)nc(OCC5CCCN5CC5CC5)nc4c3F)c12 (stereo not shown) [Hit compound 2]
Panc 04.03 cells
  IC50: 90 nM
KRAS^G12D [2]
  Kd: 0.46 ± 0.08 nM

## Oc1cc(-c2ncc3c(N4CC5CCC(C4)N5)nc(OCC4CCCN4CCC4CCCC4)nc3c2F)c2c(Cl)cccc2c1 (stereo not shown) [Hit compound 3]
Panc 04.03 cells
  IC50: 43.8 nM
KRAS^G12D [2]
  Kd: 0.13 ± 0.05 nM
[3]
  Tumor growth (tumor volume) of Panc 04.03 xenograft: significantly inhibited

## Oc1cc(-c2ncc3c(N4CC5CCC(C4)N5)nc(OCCNC4CCCCC4)nc3c2F)c2c(Cl)cccc2c1 [Hit compound 4]
Panc 04.03 cells
  IC50: 146 nM
KRAS^G12D [2]
  Kd: 0.76 ± 0.11 nM

## Cc1cccc2cccc(N3CCc4c(nc(OCC5CCCN5C)nc4N4CC5CCC(C4)N5)C3)c12 (stereo not shown) [TH-Z835, reference compound]
Panc 04.03 cells
  IC50: > 300 nM
KRAS^G12D [1]; ref Mao et al., 2022
  IC50: 1600 nM

## NC1(C(=O)NCCCn2cc(-c3ccc(OC(F)(F)F)cc3)c3cc(CN4CCN(Cc5c(Cl)cccc5Cl)CC4)ccc32)CCNCC1 [compound 3144]
KRAS^G12D [1]; ref Welsch et al., 2017
  IC50: 3800 nM
